How the values were obtained:
[1] = species not given; cited from earlier work
[2] = system: M. tuberculosis H37Rv (ATCC 27294); format: cell-based, Mycobacterium tuberculosis; conditions: one day (24 h) exposure to the Cmax of the drug (rifampicin 8 µg/ml, moxifloxacin 4 µg/ml, amikacin 8 µg/ml), compared with control without drug

| SMILES | Cmax value (maximum drug concentration in serum) [1] | rate of CP^• formation [2] |
| --- | --- | --- |
| CO[C@H]1/C=C/O[C@@]2(C)Oc3c(C)c(O)c4c(O)c(c(/C=N/N5CCN(C)CC5)c(O)c4c3C2=O)NC(=O)/C(C)=C\C=C\[C@H](C)[C@H](O)[C@@H](C)[C@@H](O)[C@@H](C)[C@H](OC(C)=O)[C@@H]1C [rifampicin] | 8000 ng/mL | – |
| NCC[C@H](O)C(=O)N[C@@H]1C[C@H](N)[C@@H](O[C@H]2O[C@H](CN)[C@@H](O)[C@H](O)[C@H]2O)[C@H](O)[C@H]1O[C@H]1O[C@H](CO)[C@@H](O)[C@H](N)[C@H]1O [amikacin] | 8000 ng/mL | quite high rate |
| COc1c(N2C[C@@H]3CCCN[C@@H]3C2)c(F)cc2c(=O)c(C(=O)O)cn(C3CC3)c12 [moxifloxacin] | 4000 ng/mL | – |

— patent EP2982983B1, “METHOD FOR DRUG SUSCEPTIBILITY TESTING OF MYCOBACTERIUM TUBERCULOSIS BY ELECTRON PARAMAGNETIC RESONANCE” (priority 2014, dated 2016)
